Patent publication US8058243B2, “Method for treating a brain cancer with ifenprodil” (HSC Research and Development Limited Partnership, priority 2006, dated 2011)
Where a name gives a salt, the structure may show the parent alone. Read-outs that look alike come from different tables or passages of the source.

Test system: murine neural precursor cells (neurosphere cultures)
Assay: HTS of LOPAC library against secondary neurosphere cultures, MTT proliferation assay at 3 μM, day 7 (z score, P value)
Assay type: cell-based, mouse
[1] = LOPAC primary screen, neurosphere MTT proliferation, 3 μM, day 7
[2] = yes/no: significantly inhibited neurosphere proliferation (P<0.01) in primary screen
[3] = LOPAC library screen, 3 μM, MTT, secondary neurosphere cultures, day 7
[4] = yes/no: significantly inhibited neurosphere proliferation (P<0.01) in the primary screen
[5] = LOPAC library screen, 3 μM, MTT, neurosphere cultures
[6] = yes = significantly inhibited neurosphere proliferation (P<0.01) in the primary screen
[7] = LOPAC library screen at 3 μM, MTT, secondary neurosphere cultures, screened in singlets
[8] = yes/no: significantly inhibited neurosphere proliferation in primary screen
[9] = LOPAC library screen at 3 μM, secondary neurosphere cultures, MTT
[10] = LOPAC screen, neurosphere MTT proliferation, 3 μM, day 7
[11] = primary LOPAC screen, 3 μM, MTT, neurosphere proliferation
[12] = yes/no: significantly inhibited neurosphere proliferation in the primary screen

With C=CC(N)CCC(=O)O (stereo not shown) [(B1)-gamma-Vinyl GABA] the “Z Score” value was −0.701.

COC(=O)c1cc2c(cn1)[nH]c1ccccc12 [Methyl beta-carboline-3-carboxylate] was tested, and the “Z Score” value was 0.06023, the Z score [1] was 0.060 and the Activity [2] was “no”.

For NCCCS(=O)(=O)O.[Na] [3-Amino-1-propanesulfonic acid sodium], the “Z Score” value [3] was −6.691, the Z score [1] was −6.691 and the Activity [4] was “yes”.

With Nc1nc(Cl)nc2c1ncn2[C@@H]1O[C@H](CO)[C@@H](O)[C@H]1O [2-Chloroadenosine] the “Z Score” value (168 h, 3 µM) was −0.396, the Z score (168 h, 3 µM) was −0.396 and the Activity [2] was “no”.

For CN1CCC(=C2c3ccccc3CC(=O)c3sccc32)CC1 [Ketotifen fumarate], the “Z Score” value [5] was 0.9573, the Z score [1] was 0.957 and the Activity [2] was “no”.

With Cc1ncc(CNC(=O)N(CCCl)N=O)c(N)n1.Cl [Nimsutine hydrochloride] the Z score [1] was −0.652 and the Activity [6] was “no”.

N.N.[Cl][Pt][Cl] [Cisplatin] was tested, and the “Z Score” value [7] was 1.523, the Z score [1] was 1.523 and the Activity [8] was “no”.

O=C(O)c1cc(O)cc(C(=O)O)n1 [Chelidamic acid] was tested, and the “Z Score” value (168 h, 3 µM) was 0.7261, the Z score (168 h, 3 µM) was 0.726 and the Activity [2] was “no”.

In the case of N.N.N.Nc1ncnc2c1ncn2C1OC(COP(=O)(O)OP(=O)(O)OP(=O)(O)OP(=O)(O)OC[C@H]2O[C@@H](n3cnc4c(N)ncnc43)C(O)C2O)[C@@H](O)C1O (stereo in doubt), the “Z Score” value [9] is reported as −0.2867, the Z score [10] is reported as −0.287 and the Activity [2] is reported as “no”.

With CNC(=C[N+](=O)[O-])NCCSCc1ccc(CN(C)C)o1 [Ranitidine hydrochloride] the “Z Score” value [5] was 0.02275, the Z score [1] was 0.023 and the Activity [8] was “no”.

With Cl.Fc1ccc(CN(C2=NCCN2)c2c(Cl)cccc2Cl)cc1 [IMID-4F hydrochloride] the “Z Score” value was −1.906, the Z score [1] was −1.906 and the Activity [2] was “no”.

In the case of CC(C)(C)NCC(O)COc1cccc2[nH]c(=O)[nH]c12.Cl (racemic) [(±)-CGP-12177A hydrochloride], the Z score [10] is reported as −1.611 and the Activity [2] is reported as “no”.

CC[C@H](CO)Nc1nc(NCc2ccccc2)c2ncn(C(C)C)c2n1 [Roscovitine] was tested, and the Activity was “no”, the “Z Score” value was 0.00273 and the Z score was 0.003.

OC[C@H]1O[C@@H](n2cnc3c(Nc4ccccc4)ncnc32)[C@H](O)[C@@H]1O [N6-Phenyladenosine] was tested, and the “Z Score” value was 0.7283, the Z score was 0.728 and the Activity [8] was “no”.

O=C(O)CCc1nc(-c2ccccc2)c(-c2ccccc2)o1 [Oxaprozin] was tested, and the “Z Score” value [5] was 0.06616, the Z score [1] was 0.066 and the Activity [8] was “no”.

With CCCCc1oc2ccccc2c1C(=O)c1cc(I)c(OCCN(CC)CC)c(I)c1 [Amiodarone hydrochloride] the “Z Score” value [5] was 0.9292, the Z score [11] was 0.929 and the Activity [12] was “no”.

CCCCCCC(C)(C)c1ccc([C@@H]2C[C@H](O)CC[C@H]2CCCO)c(O)c1 [CP55940] was tested, and the “Z Score” value was 1.396, the Z score [11] was 1.396 and the Activity [12] was “no”.

With CNc1ccc2oc(C[C@H]3O[C@@]4(CC[C@H]3C)O[C@H]([C@H](C)C(=O)c3ccc[nH]3)[C@H](C)C[C@H]4C)nc2c1C(=O)O [Calcimycin] the “Z Score” value was 2.172, the Z score [10] was 2.172 and the Activity [2] was “no”.

With Clc1ccc(C(c2ccccc2Cl)C(Cl)Cl)cc1 (stereo not shown) [1-(2-Chlorophenyl)-1-(4-chlorophenyl)-2,2-dichloroethane] the “Z Score” value [3] was −2.508, the Z score [1] was −2.508 and the Activity [6] was “yes”.

For Oc1ccc(C=Cc2cc(O)cc(O)c2)cc1 [Resveratrol], the “Z Score” value [9] was −0.2295, the Z score [1] was −0.230 and the Activity [8] was “no”.

Cc1ccc(Cl)c(Nc2ccccc2C(=O)O)c1Cl [Meclofenamic acid sodium] was tested, and the “Z Score” value [7] was 2.233, the Z score [1] was 2.233 and the Activity [6] was “no”.

With Cn1cnc2c(NC3CCCC3)ncnc21 [N6-Cyclopentyl-9-methyladenine] the “Z Score” value [3] was −2.112, the Z score [1] was −2.112 and the Activity [8] was “no”.

Cc1ncc(CNC(=O)N(CCCl)N=O)c(N)n1 [Nimustine hydrochloride] was tested, and the “Z Score” value was −0.6524.

In the case of Cl.c1ccc([C@H]2CN3CCSC3=N2)cc1 [(−)-Teramisole hydrochloride], the Z score [1] is reported as −1.866 and the Activity [2] is reported as “no”.

With CC(=N)NCCCC[C@H](N)C(=O)O.Cl [L-N6-(1-Iminoethyl)lysine hydrochloride] the “Z Score” value was −0.3809, the Z score [1] was −0.381 and the Activity [2] was “no”.

Cl.N=C(N)NC(=N)Nc1cccc(Cl)c1 [1-(m-Chlorophenyl)-biguanide hydrochloride] was tested, and the “Z Score” value was 1.795, the Z score [1] was 1.795 and the Activity [4] was “no”.

In the case of C=C(C)[C@@H]1CC=C(C(=O)O)CC1 [(−)-Perilic acid], the Z score [1] is reported as −1.321 and the Activity [8] is reported as “no”.

With CC(=O)N[C@@H](CS)C(=O)O [N-Acetyl-L-Cysteine] the “Z Score” value [3] was −1.621, the Z score [11] was −1.621 and the Activity [12] was “no”.

CCCN1CCC[C@@H]2Cc3nc(N)ncc3C[C@H]21 [Quinelorane dihydrochloride] was tested, and the Z score [1] was −1.567 and the Activity [8] was “no”.

For Clc1ccc(Cn2c(CN3CCCC3)nc3ccccc32)cc1 [Clemizole hydrochloride], the “Z Score” value [7] was 2.788, the Z score [10] was 2.788 and the Activity [2] was “no”.

In the case of CC(C)COC(=O)OCN1C(=O)CN(CCN2CC(=O)N(COC(=O)OCC(C)C)C(=O)C2)CC1=O [Sobuzoxane], the “Z Score” value [3] is reported as −9.6, the Z score [1] is reported as −9.600 and the Activity [6] is reported as “yes”.

With C[C@H](NC(=O)/C(C#N)=C/c1ccc(O)c(O)c1)c1ccccc1 [Tyrphostin AG 835] the “Z Score” value was 2.23, the Z score [11] was 2.230 and the Activity [12] was “no”.

In the case of OCCN1CCN(CCCN2c3ccccc3Sc3ccc(Cl)cc32)CC1 [Perphenazine (26), Perphenazine, reference compound], the “Z Score” value [3] is reported as −11.06, the Z score [1] is reported as −11.065 and the Activity [4] is reported as “yes”.

Nc1ncnc2c1ncn2[C@@H]1O[C@H](COP(=O)(O)CP(=O)(O)OP(=O)([O-])[O-])[C@H](O)C1O.[Li+].[Li+] (stereo partly shown) was tested, and the “Z Score” value [3] was −1.29, the Z score [1] was −1.290 and the Activity [6] was “no”.

N[C@H](CCCCCP(=O)(O)O)C(=O)O [D(−)-2-Amino-7-phosphonoheptanoic acid] was tested, and the Activity was “no”, the “Z Score” value was 0.9855 and the Z score was 0.985.

In the case of C[Se]C[C@H](N)C(=O)O.Cl [Se-(methyl)selenocysteine hydrochloride], the “Z Score” value is reported as 0.4116, the Z score [1] is reported as 0.412 and the Activity [6] is reported as “no”.

In the case of Cl.c1ccc(CN2CCC3(CCCc4ccccc43)CC2)cc1 [L-687,384 hydrochloride], the “Z Score” value is reported as −9.156, the Z score [1] is reported as −9.156 and the Activity [6] is reported as “yes”.

C[C@](N)(Cc1ccc(O)c(O)c1)C(=O)O [L-alpha-Methyl DOPA] was tested, and the “Z Score” value was −0.897, the Z score [1] was −0.897 and the Activity [6] was “no”.

In the case of CC(=O)[C@H]1CC[C@H]2[C@@H]3CC[C@H]4C[C@H](O)CC[C@]4(C)[C@H]3CC[C@]12C [5alpha-Pregnan-3alpha-ol-20-one], the “Z Score” value is reported as 0.9335, the Z score [1] is reported as 0.934 and the Activity [8] is reported as “no”.

COc1ccccc1N1CCN(CCCCNC(=O)c2ccc3ccccc3c2)CC1 [BP 897] was tested, and the “Z Score” value (168 h, 3 µM) was −1.715, the Z score (168 h, 3 µM) was −1.715 and the Activity [2] was “no”.

Quipazine dimaleate was tested, and the “Z Score” value was −1.444, the Z score [1] was −1.444 and the Activity [8] was “no”.

In the case of “R(−)-2,10,11-Trihydroxy-N-propylnoraporphine hydrobromide”, the “Z Score” value is reported as −2.744.

With CCN(CCCl)Cc1ccccc1Br.Cl [DSP-4 hydrochloride] the “Z Score” value was 1.518, the Z score [1] was 1.518 and the Activity [4] was “no”.

In the case of COC(=O)c1c(-c2cc(OC)c(OC)c(OC)c2)c2ccc(OCc3ccccn3)cc2c(=O)n1-c1ccc(N)cc1 [T-1032], the “Z Score” value is reported as −2.02, the Z score [11] is reported as −2.020 and the Activity [12] is reported as “no”.

For NCCc1c[nH]c2ccc(C(N)=O)cc12.O=C(O)/C=C\C(=O)O [5-Carboxamidotryptamine maleate], the “Z Score” value [7] was 1.667, the Z score [10] was 1.667 and the Activity [2] was “no”.

With CC(C)C[C@H](NC(=O)[C@H](O)[C@H](N)Cc1ccccc1)C(=O)O [Epibestatin hydrochloride] the “Z Score” value [9] was −0.7869, the Z score [10] was −0.787 and the Activity [2] was “no”.

With Nc1nc2ccc(Cl)cc2c2nc(-c3ccco3)nn12 [CGS-15943] the “Z Score” value was 0.1783 and the Z score was 0.178.

For C[C@@H]1OC[C@H](C[N+](C)(C)C)O1.[I-] [(+)-cis-Dioxolane iodide], the “Z Score” value was −3.402, the Z score [1] was −3.402 and the Activity [4] was “yes”.

For (±)-Atenolol, the Z score [11] was −0.658 and the Activity [12] was “no”.

With CC12NC(Cc3ccccc31)c1ccccc12.O=C(O)/C=C\C(=O)O (single isomer, unassigned; (+)) [(+)-MK-801 hydrogen maleate] the “Z Score” value was −0.09805, the Z score [1] was −0.098 and the Activity [6] was “no”.

With Cc1cccc(/C=C/c2ccccc2)n1 [SIB 1893] the “Z Score” value was −0.848, the Z score [1] was −0.848 and the Activity [8] was “no”.

For CCCN(CCC)CCc1ccc(O)c(O)c1 [Dipropyldopamine hydrobromide], the “Z Score” value was −1.346 and the Z score [10] was −1.346.

For NC(=NCc1ccccc1)NC(=O)c1nc(Cl)c(N)nc1N [Benzamil hydrochloride], the “Z Score” value [9] was −1.054, the Z score [10] was −1.054 and the Activity [2] was “no”.

In the case of Cc1nc2n(c(=O)c1CCN1CCC(c3noc4cc(F)ccc34)CC1)CCCC2 [Risperidone], the “Z Score” value is reported as 1.694, the Z score [1] is reported as 1.694 and the Activity [8] is reported as “no”.
